Here are results for twelve molecules from patent US6982249B1, “Bradykinin analogs as selective inhibitors of cell activation” (The Regents of the University of Michigan, priority 1997, dated 2006).

The half-life is the time needed for the level to fall by half in the phase considered.

“Also recorded” adds a separate entry of the source. Where two headings read alike, the source gives them in different places. Square brackets hold non-standard residues; d marks the D form. Ends that are not written are not given here.

In data set [1] the test system is γ-thrombin-induced platelet aggregation. The data set can be described thus: γ-thrombin-induced platelet aggregation in human platelet-rich plasma. Type of data set: cell-based. To be noted: for inhibition of γ-thrombin-induced platelet aggregation (in words): assay like Example 1A. As for the experimental part: For human platelet aggregation studies, 50 ml human blood was collected into a syringe containing 5 ml of 0.013 M sodium citrate. The anticoagulated blood was centrifuged at 180 xg for 10 minutes at room temperature and the platelet-rich plasma was the supernatant. Platelet aggregation studies in platelet-rich plasma were performed in the cuvette of an aggregometer using γ-thrombin (Haematologic Technologies, Essex Junction, Vt.). After standardization of the aggregometer, the threshold dose of γ-thrombin, defined as the minimal concentration that will induce full platelet aggregation, was ascertained for each preparation of platelet-rich plasma. Typically, the threshold dose of γ-thrombin was between 5 and 30 nM.
Various concentrations of the peptide being tested were added to the platelet-rich plasma in the cuvette of the aggregometer. Platelet aggregation was induced by the addition of γ-thrombin. The degree of platelet aggregation was determined by measuring (in arbitrary units) the increase in light transmission through the stirred suspension of platelet-rich plasma. […]
The peptides synthesized in Example 4 were assayed for the ability to inhibit γ-thrombin-induced platelet aggregation in platelet-rich plasma.

The target of data set [2] is T1, NAT12 (thrombin receptor cleavage site) (Homo sapiens, UniProt P25116).
T1 construct: spans amino acids 35-46 of the α-thrombin cleavage site on the thrombin receptor
The data set can be described thus: Binding of biotinylated NAT12 to peptides linked to microtiter plates. The following applies: peptide linked to microtiter plate. As for the experimental part: (§1) Peptides from a combinatorial library are linked to microtiter plates and the wells are blocked with 1% BSA. Biotinylated-NAT12 is incubated with the microtiter plates. After washing, the presence of biotin-NAT12 attached to the matrix support expressing peptides is detected by incubation with ImmunoPure streptavidin horseradish peroxidase conjugate (Pierce Chemical Co., Rockville Ill.) followed by peroxidase-specific fast reacting substrate, turbo-3,3′,5,5′-tetramethylbenzidine (turbo-TMB, Pierce Chemical Co., Rockville Ill.). After incubation for 5 min at room temperature, the color reaction of the turbo-TMB is stopped by the addition of 1 M phosphoric acid. The bound peptide is quantified by measuring the absorbance of the reaction mixture at 450 nm using a Microplate auto reader EL311 (BioTek Instrument, Winooski Vt.).
The specific binding of biotinylated NAT12 to BK analogs and other peptides was assayed as described in Example 2A.

For data set [3], the target named is T2, NAT12 (SEQ ID NO:2), α-thrombin cleavage site on the thrombin receptor (Homo sapiens, UniProt P25116).
T2 construct: spans amino acids 35-46 of the α-thrombin cleavage site on the thrombin receptor
As to the kind of experiment: α-thrombin cleavage of NAT12 peptide (HPLC). The data set is classed as biochemical. The following applies: 1 mM peptide, 8 nM α-thrombin. As for the experimental part:
The peptide NAT12 (SEQ ID NO:2), which spans amino acids 35-46 of the α-thrombin cleavage site on the thrombin receptor (Vu et al., Cell 64, 1057 (1991), was also used to determine whether BK analogs blocked α-thrombin cleavage of the cloned receptor.
The cleavage studies were performed according to the method of Molino et al., J. Biol. Chem. 270, 11168 (1995). Briefly, NAT12 (SEQ ID NO:2) was dissolved in a solution of 0.01 M NaH2PO4 and 0.15 M NaCl, pH 7.4. The mixture was then incubated with 8 nM α-thrombin for one hour at 37° C. either in the absence (control) or presence of 1 mM of a BK analog. Following incubation, the mixture was applied to a Vyadec C-18 HPLC column in 0.1% trifluoroacetic acid and eluted with a gradient from 0% to 100% of 80% MeCN and 0.1% trifluoroacetic acid. The sizes of the separated products were confirmed by mass spectrometry.
NAT12 (SEQ ID NO:2) produced a single peak (peak 1) when analyzed by HPLC. […] The additional peaks, peaks 3 and 2, represent the cleavage products of NAT12.

A short description of data set [4]: In vivo clearance after single intravenous infusion (plasma ELISA). Details: species or system New Zealand white rabbits. To be noted: rabbit; for half-life: single i.v. infusion. As for the experimental part: (§2) Clearance studies were performed in New Zealand white rabbits weighing between 2.0 and 2.5 kg. Rabbits were premedicated according to the method of Michelson et al., J. Mol. Cell Cardiol. 20, 547 (1988) with 10 mg/kg 1 M xylazine and 10 mg/kg 1 M ketamine. After tracheostomy, intubation, and positive pressure ventilation done with room air (Harvard instruments), stage III surgical anesthesia was maintained with 20 mg/ml of intravenous pentobarbital. A carotid artery and a jugular vein were then exposed. A catheter was inserted into the exposed carotid artery for withdrawal of blood samples and monitoring the animal's blood pressure (Gould, Inc., Cardiovascular Products, Oxnard. Calif.). In a similar manner, a catheter was inserted into the exposed jugular vein for administering the anesthetic and BK analog.
(§3) A single intravenous infusion of BK analog was injected. The amount of BK analog injected was calculated from the weight of the animal such that the blood concentration was 1 mM peptide. For example: for a 2.5 kg rabbit, 7% of its weight gives an estimated blood volume of 175 ml. Accordingly, 89 mg of the control BK fragment SEQ ID NO:7 was injected (giving a 1 mM concentration in the 175 ml plasma). Depending upon the size of the animal, 75 to 90 mg peptide was injected. Blood samples were collected at 2, 4, 6, 8, 10, 20, 30, 40, 60, 90, and 120 minute intervals after infusion into a 0.013 M sodium citrate anticoagulant solution. Plasma was prepared from each of the blood samples collected over time by centrifugation of the blood samples at 10,000×g for two minutes. Aliquots of the plasmas were assayed for the presence of the BK analog antigen by the ELISA technique using a MARKIT-M [1-5] BK assay from Dainippon Pharmaceutical Co., Ltd., Osaka, Japan.
(In general: In an ELISA, binding on a coated surface is turned into a signal by an enzyme label.)

A short description of data set [5]: Observations of the animals after bolus injection (blood pressure, pulse, platelet count, bleeding). The data set is classed as in vivo, New Zealand white rabbits. The following applies: rabbit, i.v. bolus. As for the experimental part:
as §2, §3

The subject of data set [6] is fibroblasts (thrombin receptor, PAR 1). The data set can be described thus: α-thrombin-induced calcium mobilization in fibroblasts. The data set is classed as cell-based. As for the experimental part: A variation of the calcium mobilization assay uses fibroblasts (which express a single receptor for thrombin, PAR 1), umbilical vein endothelial cells, or other cells which express the cloned thrombin receptor, and which grow in monolayers on the bottom of plastic wells.
Fibroblasts or endothelial cells were grown in 24-96 well plates and loaded with the fluorescent Ca^2+ indicator fura-2 acetyloxymethylester (5 μM, Molecular Probes Inc.) by incubation for 60 min. in HEPES-Tyrode's buffer at 37° C. After washing the cells, the fluorescence of the cells was monitored on a thermostatically controlled heated pad at 37° C. for 1 min, then the cells were incubated with α-thrombin (1 to 5 nM) in the absence or presence of a BK analog. Fluorescence was detected by a Perkin-Elmer LS-50B Luminescence Spectrofluorometer. Excitation was measured at 340 and 380 nm wavelength and emission was assessed at 510 nm. The cytosolic Ca^2+ levels were determined as described above. The Rmax value was determined using 10 mM Ca^2+ in the presence of 20 μM Ionophor A23187; Rmin was determined in the presence of 20 mM EDTA.
The ability of BK analogs to inhibit α-thrombin-induced calcium mobilization in fibroblasts and human umbilical vein endothelial cells (HUVEC) was assayed as described in Example 1C.
On the technique in general: A change in cytosolic calcium serves as a functional read-out for many receptors and channels.

In another data set the target is T3, RPPGC (not fully specified).
T3 peptide: RPPGC
As to the kind of experiment: microtiter plate assay, plate-linked peptide, biotin-NAT12 detected with streptavidin-HRP. As for the experimental part:
as §1, with “turbo-3,3',5,5'-tetramethylbenzidine” for “turbo-3,3′,5,5′-tetramethylbenzidine”
(§4) Peptides from a combinatorial library are linked to a microtiter plate and blocked with 1% BSA. Biotinylated-NAT12 is incubated with the microtiter plate. After washing, the presence of biotin-NAT12 attached to the matrix support expressing peptides is detected by incubation with Immu-noPure streptavidin horseradish peroxidase conjugate (Pierce Chemical Co., Rockville Ill.) followed by peroxidase-specific fast reacting substrate, turbo-3,3',5,5'-tetramethylbenzidine (turbo-TMB, Pierce Chemical Co., Rockville Ill.). After incubation for 5 min at room temperature, the color reaction of the turbo-TMB is stopped by the addition of 1 M phosphoric acid. The bound peptide is quantified by measuring the absorbance of the reaction mixture at 450 nm using a Microplate auto reader EL311 (BioTek Instrument, Winooski Vt.). Compounds which bind the NAT12 peptide are also assayed for the ability to inhibit platelet aggregation and the ability to inhibit calcium mobilization, using the assays described in Example 1.

Another data set has as its target T4, LNA7.
T4 construct: Control peptide
T4 peptide: LNAENNA
The data set is described as above. As for the experimental part:
as §1, with “turbo-3,3',5,5'-tetramethylbenzidine” for “turbo-3,3′,5,5′-tetramethylbenzidine”
as §4

The target of a further data set is T5, FSPFR.
T5 construct: Control peptide
T5 peptide: FSPFR
The data set is described as above. As for the experimental part: as §1, with “turbo-3,3',5,5'-tetramethylbenzidine” for “turbo-3,3′,5,5′-tetramethylbenzidine”
as §4

The next data set deals with T6, NAT12.
T6 chain: NATLDPRSFLLR
As to the kind of experiment: cell-based or functional assay.

For the molecule Arg-Pro-Pro-Amide [RPP-Amide], in [1] (human PRP), the “inhibition of γ-thrombin-induced platelet aggregation (in words)” value (“inhibition … (in words)” for short) is given as “reduced ability”.
Turning to “RPPGC: peptide RPPGC (SEQ ID NO:9) (bradykinin analog)”, in data set [2], the “specific binding of biotinylated NAT12 to the peptide (FIG. 4)” value (from here on “specific binding of biotinylated NAT12”) is reported as “specifically bound”.
Turning to RPPGF [RPPGF, Arg-Pro-Pro-Gly-Phe], the “reduction of NAT12 peak 1 area after α-thrombin treatment” value in [3] (1 h 37° C., without peptide 81%) is 57%. Further, the “NAT12 cleavage product peak 2, share of original peak area” value in data set [3] (without peptide 37%) is listed as 26%. In addition, the “NAT12 cleavage product peak 3, share of original peak area” value in data set [3] (without peptide 44%) amounted to 31%. For the same molecule, in [4] (New Zealand white, plasma, iv, single i.v. infusion 75 to 90 mg, ELISA, two of three rabbits, read-out: peak plasma concentration after infusion), the Cmax was found to be 60 µg/mL. Moreover, the half-life in data set [4] (New Zealand white, plasma, iv, read-out: half-life of antigen clearance in plasma, first phase) came to 2.8 min. Also, the half-life in data set [4] (New Zealand white, plasma, iv, read-out: half-life of antigen clearance in plasma, second phase) stood at 20 min. Moreover, the “peak plasma concentration after infusion” value in data set [4] (single i.v. infusion 75 to 90 mg, ELISA, two of three rabbits) was found to be 0.120 mM. Moreover, in data set [5], the “bleeding at the surgical sites of cutdowns and intubations” value was “no abnormal bleeding”; the “blood pressure, pulse, and platelet count” value is “remained stable”; the “unfavorable effects following the bolus injection” value is listed as “No unfavorable effects were observed”.
Turning to “FSPFR: peptide FSPFR (SEQ ID NO: 10) (bradykinin analog)”, in data set [2], the “specific binding of biotinylated NAT12” value is on record as “not”.
For the molecule Arg-[dP]-Pro, the “inhibition … (in words)” value in data set [1] (human PRP) was “reduced ability”.
Consider “LNA7: non-BK analog peptide (SEQ ID NO:8) (LNAENNA; bradykinin analog)”, for which, in [1] (1 mM peptide, 20 nM γ-thrombin, human PRP), the “inhibition of γ-thrombin-induced platelet aggregation” value was “unable to inhibit”. The “specific binding of biotinylated NAT12” value in [2] is given as “not”.
Take “Arg-Pro-Pro-Ala-Phe (RPPAF; bradykinin analog)”: the “inhibition … (in words)” value in [1] (human PRP) is recorded as “showed inhibition”.
Same read-out and setting: with [dR]-Pro-Pro the entry was “reduced ability”.
On to Arg-Pro-Pro [RPP], for which the “γ-thrombin-induced platelet aggregation at 50 μM peptide (FIG. 2)” value in [1] (50 μM peptide, 27.5 nM γ-thrombin) is given as “abolish”. Moreover, the “fold better as an inhibitor than RPPGF” value in [1] (100% inhibition of γ-thrombin-induced aggregation, same conditions) was “greater than 2.5 fold”. In addition, in [1] (human PRP), the “inhibition … (in words)” value is on record as “showed inhibition”. Moreover, in data set [1] (mean±SD of 3 or 5 experiments, human PRP), the “concentration that inhibited γ-thrombin-induced platelet aggregation 100%” value is given as 0.089 mM. For the same molecule, the “inhibition of α-thrombin-induced calcium mobilization in fibroblasts (FIG. 5)” value in data set [6] is given as “inhibited calcium mobilization; also recorded: inhibition”.
Turning to Arg-Pro, the “inhibition … (in words)” value in data set [1] (human PRP) is reported as “no inhibitory activity”.

B1: biotinylated NAT12 (peptide)
peptide: NATLDPRSFLLR
modifications: also: biotinylated (position not given here)
notes: It was in solution in the microtiter plate assay; also called biotin-NAT12
Regarding B1, the binding result is given as “binds” with RPPGC, “no binding” with LNA7 and “no binding” with FSPFR.
As for RPPGF (modifications not checked) [Arg-Pro-Pro-Gly-Phe (RPPGF)], in the data set with NAT12, the cleavage product peak 2, as a share of the original NAT12 peak area, in the presence of 1 mM peptide stood at 26%; the cleavage product peak 3, as a share of the original NAT12 peak area, in the presence of 1 mM peptide came out at 31%; the reduction of the NAT12 HPLC peak area (peak 1) after alpha-thrombin in the presence of 1 mM peptide was found to be 57%.
